Reference: PMC9774488, “The ER Aminopeptidases, ERAP1 and ERAP2, synergize to self-modulate their respective activities” (Frontiers in Immunology, 2022)
Where a SMILES comes first, the peptide text is derived from it.

Each compound was assayed against ERAP2 (Homo sapiens, UniProt Q6P179) (assay: biochemical).
ERAP2, sequence (Q6P179 whole entry): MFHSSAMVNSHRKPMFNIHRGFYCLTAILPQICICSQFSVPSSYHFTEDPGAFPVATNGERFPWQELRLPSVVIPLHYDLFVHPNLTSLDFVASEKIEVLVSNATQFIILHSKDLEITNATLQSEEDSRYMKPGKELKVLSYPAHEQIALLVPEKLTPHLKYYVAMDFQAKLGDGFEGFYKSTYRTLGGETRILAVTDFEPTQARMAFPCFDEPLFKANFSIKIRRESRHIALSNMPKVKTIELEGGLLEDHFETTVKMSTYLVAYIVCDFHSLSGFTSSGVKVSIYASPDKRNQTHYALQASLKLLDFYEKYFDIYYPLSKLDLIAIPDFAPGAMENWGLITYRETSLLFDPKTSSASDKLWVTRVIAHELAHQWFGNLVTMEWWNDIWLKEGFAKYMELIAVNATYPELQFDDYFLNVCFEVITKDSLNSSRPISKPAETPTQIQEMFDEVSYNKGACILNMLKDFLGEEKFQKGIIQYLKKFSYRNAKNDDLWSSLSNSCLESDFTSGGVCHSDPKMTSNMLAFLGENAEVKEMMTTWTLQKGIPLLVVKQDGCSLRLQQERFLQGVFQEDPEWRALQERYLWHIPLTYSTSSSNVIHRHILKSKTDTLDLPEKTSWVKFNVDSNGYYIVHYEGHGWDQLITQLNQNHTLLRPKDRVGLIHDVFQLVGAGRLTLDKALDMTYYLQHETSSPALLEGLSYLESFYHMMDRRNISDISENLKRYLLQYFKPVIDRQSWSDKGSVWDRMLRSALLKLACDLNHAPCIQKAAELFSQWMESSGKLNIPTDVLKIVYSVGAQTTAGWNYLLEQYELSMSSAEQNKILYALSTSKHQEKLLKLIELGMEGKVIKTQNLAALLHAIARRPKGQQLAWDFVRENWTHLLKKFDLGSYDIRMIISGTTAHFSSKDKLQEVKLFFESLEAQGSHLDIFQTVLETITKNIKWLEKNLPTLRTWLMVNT
Procedure: Substrate hydrolysis was assessed by measuring the fluorescence of free AMC at 14-s intervals, at 380nm and 460 nm excitation and emission wavelengths, respectively, in a Fluostar Optima Multiwave Plate Reader (BMG Labtec, Ortenberg, Germany).

Question: With `CC[C@H](C)[C@H](NC(=O)[C@H](CCC(N)=O)NC(=O)[C@H](Cc1ccccc1)NC(=O)[C@@H](NC(=O)[C@H](CC(=O)O)NC(=O)CNC(=O)[C@H](Cc1ccc(O)cc1)NC(=O)[C@H](CCCNC(=N)N)NC(=O)[C@H](CCCNC(=N)N)NC(=O)[C@H](C)NC(=O)[C@@H](N)CC(C)C)C(C)C)C(=O)O` (H-LARRYGDVFQI-OH) as the compound, how does the IC50 read?
Answer: Its IC50 is 18.6 µM.

Question: For `CC(C)C[C@H](NC(=O)[C@H](CCCCN)NC(=O)[C@H](CC(=O)O)NC(=O)CNC(=O)[C@H](Cc1ccccc1)NC(=O)[C@H](CCCNC(=N)N)NC(=O)[C@H](CCCNC(=N)N)NC(=O)[C@H](CC(C)C)NC(=O)[C@@H](N)CCC(N)=O)C(=O)N[C@@H](CC(N)=O)C(=O)N[C@@H](Cc1ccccc1)C(=O)O` (H-QLRRFGDKLNF-OH), which IC50 is on record?
Answer: Its IC50 is 13.2 µM.

Question: For `CC(C)C[C@H](NC(=O)[C@H](Cc1ccc(O)cc1)NC(=O)[C@@H]1CCCN1C(=O)[C@H](CO)NC(=O)[C@H](CCCCN)NC(=O)CNC(=O)[C@H](Cc1ccc(O)cc1)NC(=O)[C@H](CCCNC(=N)N)NC(=O)[C@H](C)NC(=O)[C@H](CC(C)C)NC(=O)[C@@H](N)CO)C(=O)N[C@@H](Cc1ccc(O)cc1)C(=O)O` (H-SLARYGKSPYLY-OH), which IC50 is on record?
Answer: The IC50 was 2.88 µM.
